For this assay, the target named is T1, PLK1 (Homo sapiens, UniProt P53350).
T1 construct: Full-length, active GST-PLK1 is purified from Sf9 insect cells; made in house; host or cells: Sf9 insect cells
As to the kind of experiment: Biochemical Characterization Assay: HTRF kinase assay, GST-PLK1 phosphorylation of GST-p53. The note with it: GST-PLK1, GST-p53 substrate. The essentials: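 HTRF read-out of p53 phosphorylation: after EDTA stop, anti-phospho-p53 antibody bound 30 min at 37 °C in HEPES pH 7 buffer, with Eu-anti-rabbit/APC-anti-GST detection. Kinase step used full-length Sf9-expressed GST-PLK1 (3 ug/mL) and E. coli GST-p53 substrate, 35 min at 37 °C.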

The structures appear in SMILES notation.

T1 sequence (P53350 whole entry): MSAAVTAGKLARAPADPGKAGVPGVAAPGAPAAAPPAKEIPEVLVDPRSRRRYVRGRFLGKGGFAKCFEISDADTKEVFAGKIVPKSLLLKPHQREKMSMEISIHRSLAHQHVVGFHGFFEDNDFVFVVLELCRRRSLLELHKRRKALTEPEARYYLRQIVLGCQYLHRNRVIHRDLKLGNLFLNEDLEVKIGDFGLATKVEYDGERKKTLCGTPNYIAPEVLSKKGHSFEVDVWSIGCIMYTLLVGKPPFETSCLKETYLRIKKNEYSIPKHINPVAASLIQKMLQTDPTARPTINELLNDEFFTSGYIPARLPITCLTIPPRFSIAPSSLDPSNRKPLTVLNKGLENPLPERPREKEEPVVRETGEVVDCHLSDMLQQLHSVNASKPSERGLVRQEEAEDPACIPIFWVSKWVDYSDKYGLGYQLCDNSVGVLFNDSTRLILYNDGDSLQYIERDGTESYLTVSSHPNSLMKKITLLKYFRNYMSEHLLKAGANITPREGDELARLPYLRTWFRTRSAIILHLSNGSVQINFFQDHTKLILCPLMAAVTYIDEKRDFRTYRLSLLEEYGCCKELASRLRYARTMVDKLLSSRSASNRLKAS

As a reminder, the IC50 is the concentration needed to halve the response being measured. A high value points to lower potency. `CCN1C(=O)C(F)(F)CN(C2CCCC2)c2nc(Nc3ccc(C(=O)NC4CCN(C)CC4)cc3OC)ncc21` [Example I-159, 4-(9-cyclopentyl-5-ethyl-7,7-difluoro-6-oxo-6,7,8,9-tetrahydro-5H-pyrimido[4,5-b][1,4]diazepin-2-ylamino)-3-methoxy-N-(1-methyl-piperidin-4-yl)-benzamide] came in with an IC50 of 51 to 500 nM.

As for `CN1C(=O)C(F)(F)CN(C2CCCC2)c2nc(Nc3cc(F)c(C(=O)NC4CCNCC4)cc3F)ncc21` [Example I-240, 4-(9-cyclopentyl-7,7-difluoro-5-methyl-6-oxo-6,7,8,9-tetrahydro-5H-pyrimido[4,5-b][1,4]diazepin-2-ylamino)-2,5-difluoro-N-piperidin-4-yl-benzamide], the IC50 was in the range of 1 to 50 nM.

The molecule `CNC(=O)c1ccc(Nc2ncc3c(n2)N(CCc2ccccc2)CC(F)(F)C(=O)N3C)c(OC)c1` [Example I-278, 4-(7,7-difluoro-5-methyl-6-oxo-9-phenethyl-6,7,8,9-tetrahydro-5H-pyrimido[4,5-b][1,4]diazepin-2-ylamino)-3-methoxy-N-methyl-benzamide] registered an IC50 of 51 to 500 nM.

In turn, `CCCN1C(=O)C(F)(F)CN(C2CCCC2)c2nc(Nc3ccc(C(=O)NCCCN(C)C)cc3)ncc21` [Example I-148, 4-(9-cyclopentyl-7,7-difluoro-6-oxo-5-propyl-6,7,8,9-tetrahydro-5H-pyrimido[4,5-b][1,4]diazepin-2-yl-amino)-N-(3-dimethyl-amino-propyl)-benzamide] yielded an IC50 (ATP) of 500 to 5000 nM.

For the setting “ATP”, `COc1cc(C(=O)NCC(O)CN2CCN(C(=O)OC(C)(C)C)CC2)ccc1Nc1ncc2c(n1)N(C1CCCC1)CC(F)(F)C(=O)N2C` (stereo not shown) [Example I-120, 4-{3-[4-(9-cyclopentyl-7,7-difluoro-5-methyl-6-oxo-6,7,8,9-tetrahydro-5H-pyrimido[4,5-b][1,4]diazepin-2-ylamino)-3-methoxy-benzoylamino]-2-hydroxy-propyl}-piperazine-1-carboxylic acid tert-butyl ester] registered an IC50 of 51 to 500 nM.

Take `Cc1cc(C(=O)NC2CCN(C)CC2)ccc1Nc1ncc2c(n1)N(C1CCCC1)CC(F)(F)C(=O)N2C` [Example I-185, 4-(9-cyclopentyl-7,7-difluoro-5-methyl-6-oxo-6,7,8,9-tetrahydro-5H-pyrimido[4,5-b][1,4]diazepin-2-ylamino)-3-methyl-N-(1-methyl-piperidin-4-yl)-benzamide]: the IC50 lay in the range of 1 to 50 nM.

Regarding `CNC(=O)c1ccc(Nc2ncc3c(n2)N(C2CCCC2)CC(F)(F)C(=O)N3C)c(F)c1` [Example I-228, 4-(9-cyclopentyl-7,7-difluoro-5-methyl-6-oxo-6,7,8,9-tetrahydro-5H-pyrimido[4,5-b][1,4]diazepin-2-ylamino)-3-fluoro-N-methyl-benzamide], the IC50 lay in the range of 1 to 50 nM.

In turn, `CCOc1cc(C(=O)NC2CCOCC2)ccc1Nc1ncc2c(n1)N(C1CCCC1)CC(F)(F)C(=O)N2C` [Example I-217, 4-(9-cyclopentyl-7,7-difluoro-5-methyl-6-oxo-6,7,8,9-tetrahydro-5H-pyrimido[4,5-b][1,4]diazepin-2-ylamino)-3-ethoxy-N-(tetrahydro-pyran-4-yl)-benzamide] returned an IC50 of 1 to 50 nM.

Turning to `COc1cc(C(=O)NC2CCN(c3ccncc3)CC2)ccc1Nc1ncc2c(n1)N(C1CCCC1)CC(F)(F)C(=O)N2C` [Example I-62, 4-(9-cyclopentyl-7,7-difluoro-5-methyl-6-oxo-6,7,8,9-tetrahydro-5H-pyrimido[4,5-b][1,4]diazepin-2-ylamino)-3-methoxy-N-(3,4,5,6-tetrahydro-2H-[1,4′]bipyridinyl-4-yl)-benzamide], the IC50 (ATP) is 1 to 50 nM.

`COc1cc(C(=O)NC2CCOCC2)c(F)cc1Nc1ncc2c(n1)N(C1CCCC1)CC(F)(F)C(=O)N2C` [Example I-173, 4-(9-cyclopentyl-7,7-difluoro-5-methyl-6-oxo-6,7,8,9-tetrahydro-5H-pyrimido[4,5-b][1,4]diazepin-2-ylamino)-2-fluoro-5-methoxy-N-(tetrahydropyran-4-yl)-benzamide] had an IC50 of 1 to 50 nM.

The molecule `Cc1cc(C(N)=O)ccc1Nc1ncc2c(n1)N(C1CCCC1)CC(F)(F)C(=O)N2C` [Example I-193, 4-(9-cyclopentyl-7,7-difluoro-5-methyl-6-oxo-6,7,8,9-tetrahydro-5H-pyrimido[4,5-b][1,4]diazepin-2-ylamino)-3-methyl-benzamide] returned an IC50 of 1 to 50 nM.

In the case of `COc1cc(C(=O)NCCN2CCCCC2)ccc1Nc1ncc2c(n1)N(C1CCCC1)CC(F)(F)C(=O)N2C` [Example I-114, 4-(9-cyclopentyl-7,7-difluoro-5-methyl-6-oxo-6,7,8,9-tetrahydro-5H-pyrimido[4,5-b][1,4]diazepin-2-ylamino)-3-methoxy-N-(2-piperidin-1-yl-ethyl)-benzamide], the IC50 (ATP) lay within 1 to 50 nM.

`Cc1cc(C(=O)NC2CCOCC2)ccc1Nc1ncc2c(n1)N(C1CCCC1)CC(F)(F)C(=O)N2C` [Example I-187, 4-(9-cyclopentyl-7,7-difluoro-5-methyl-6-oxo-6,7,8,9-tetrahydro-5H-pyrimido[4,5-b][1,4]diazepin-2-ylamino)-3-methyl-N-(tetrahydro-pyran-4-yl)-benzamide] yielded an IC50 of 1 to 50 nM.

In turn, `CN1C(=O)C(F)(F)CN(C2CCC2)c2nc(Nc3ccc(C(N)=O)cc3)ncc21` [Example I-12, 4-(9-cyclobutyl-7,7-difluoro-5-methyl-6-oxo-6,7,8,9-tetrahydro-5H-pyrimido[4,5-b][1,4]diazepin-2-ylamino)-benzamide] returned an IC50 (ATP) of 51 to 500 nM.

For the molecule `CN1C(=O)C(F)(F)CN(C2CCCCC2)c2nc(Nc3ccc(C(=O)NC4CCNCC4)cc3)ncc21` [Example I-260, 4-(9-cyclohexyl-7,7-difluoro-5-methyl-6-oxo-6,7,8,9-tetrahydro-5H-pyrimido[4,5-b][1,4]diazepin-2-ylamino)-N-piperidin-4-yl-benzamide], the IC50 fell in the range of 1 to 50 nM.

Molecule `COc1cc(C(=O)NCc2cccnc2)ccc1Nc1ncc2c(n1)N(C1CCCC1)CC(F)(F)C(=O)N2C` [Example I-111, 4-(9-cyclopentyl-7,7-difluoro-5-methyl-6-oxo-6,7,8,9-tetrahydro-5H-pyrimido[4,5-b][1,4]diazepin-2-ylamino)-3-methoxy-N-pyridin-3-yl-methyl benzamide] returned a concentration for half-maximal inhibition (IC50) (ATP) of 1 to 50 nM.

Where the note is “ATP”, `CN(C)CCNC(=O)c1ccc(Nc2ncc3c(n2)N(C2CCC2)CC(F)(F)C(=O)N3C)cc1` [Example I-18, 4-(9-cyclobutyl-7,7-difluoro-5-methyl-6-oxo-6,7,8,9-tetrahydro-5H-pyrimido[4,5-b][1,4]diazepin-2-ylamino)-N-(2-dimethylamino-ethyl)-benzamide] registered an IC50 of 1 to 50 nM.

`CCOc1cc(C(=O)NC2CCN(C)CC2)ccc1Nc1ncc2c(n1)N(C1CCCC1)CC(F)(F)C(=O)N2C` [Example I-215, 4-(9-cyclopentyl-7,7-difluoro-5-methyl-6-oxo-6,7,8,9-tetrahydro-5H-pyrimido[4,5-b][1,4]diazepin-2-ylamino)-3-ethoxy-N-(1-methyl-piperidin-4-yl)-benzamide]: the IC50 was 1 to 50 nM.

`COc1cc(C(=O)NC2CCN(C)CC2)ccc1Nc1ncc2c(n1)NCC(F)(F)C(=O)N2C` [Example I-303, 4-(7,7-difluoro-5-methyl-6-oxo-6,7,8,9-tetrahydro-5H-pyrimido[4,5-b][1,4]diazepin-2-ylamino)-3-methoxy-N-(1-methyl-piperidin-4-yl)-benzamide] yielded an IC50 of 51 to 500 nM.

Source of the values: patent US8003785B2 (Takeda Pharmaceutical Company Limited, priority 2008, dated 2011).
